For 23 compounds, IC50 results are on record in patent publication US8580829B2 (Boehringer Ingelheim International GmbH, priority 2010, dated 2013).

Assay [1] relates to synthesis of LTB4 in human whole blood. In words: human whole blood LTB4 production inhibition assay. It counts as cell-based. As to conditions: Homo sapiens, heparinized human whole blood, calcimycin 20 μM; read-out: hWB LTB4 IC50. How it is done:
Compounds are additionally tested in a human whole blood assay to determine their ability to inhibit the synthesis of LTB4 in a cellular system. Compounds are combined with heparinized human whole blood and incubated for 15 minutes at 37° C. Calcimycin (20 μM final, prepared in phosphate-buffered saline, pH 7.4) is then added and the mixture is incubated for another 30 minutes at 37° C. The samples are centrifuged for 5 min at low speed (1500×g) and the plasma layer is removed. Plasma LTB4 concentrations are then measured using an antibody-based homogenous time-resolved fluorescence method (CisBio, Bedford, Mass.).

In assay [2] the target is T1, recombinant human FLAP protein (Homo sapiens, UniProt P20292).
T1 construct: made in house; host or cells: Sf9 insect cells (100,000 x g membrane fraction)
T1 sequence (P20292 1-161): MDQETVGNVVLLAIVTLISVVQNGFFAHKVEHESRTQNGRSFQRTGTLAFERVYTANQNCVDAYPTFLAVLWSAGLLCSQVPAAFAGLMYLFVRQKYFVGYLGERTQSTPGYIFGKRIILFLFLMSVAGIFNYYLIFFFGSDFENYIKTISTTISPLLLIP
In words: FLAP binding assay (Scintillation Proximity Assay, displacement of [125I]L-691,831). As to conditions: recombinant human FLAP membranes, [125I]L-691,831 probe; read-out: FLAP SPA IC50. The method, then:
Cell pellets produced from sf9 insect cells expressing recombinant human FLAP protein are resuspended in buffer A [15 mM Tris-HCl (pH 7.5), 2 mM MgCl2, 0.3 mM EDTA, 1 mM PMSF]. The cells are lysed with a Dounce homogenizer and the material is centrifuged at 10,000×g for 10 minutes. The supernatant is then collected and centrifuged at 100,000×g for 60 minutes. To prepare membrane protein for an assay, an aliquot of the 100,000×g pellet is resuspended in 1 ml of buffer A, Dounce homogenized, and finally subjected to polytron mixing (30 seconds). Membrane protein (25 μl, 5 μg) is mixed with WGA SPA beads (Amersham) and stirred for 1 h.
(Scintillation proximity formats need no separation of bound from free tracer.)

By IC50 is commonly meant the concentration that inhibits the measured activity by half. Regarding `COC(=O)c1cnc(-c2nc(C3(c4ccc(-c5cnc(N)nc5)cc4)CCC3)no2)cn1` [Example 1, 5-(3-{1-[4-(2-amino-pyrimidin-5-yl)-phenyl]-cyclobutyl}-1,2,4-oxadiazol-5-yl)-pyrazine-2-carboxylic acid methyl ester], the IC50 in assay [1] is 0.33 µM; in assay [2], 0.0084 µM.

With `CCn1ncc(-c2nc(C3(c4ccc(-c5cnc(N)nc5)cc4)CCC3)no2)c1C` [Example 2, 5-(4-{1-[5-(1-ethyl-5-methyl-1H-pyrazol-4-yl)-1,2,4-oxadiazol-3-yl]-cyclobutyl}-phenyl)-pyrimidin-2-ylamine], the IC50 in assay [1] turned out to be 0.1 µM; in assay [2] it was 0.0022 µM.

Consider `Cn1cc(-c2nc(C3(c4ccc(-c5cnc(N)nc5)cc4)CCC3)no2)ccc1=O` [Example 3, 5-(3-{1-[4-(2-Amino-pyrimidin-5-yl)-phenyl]-cyclobutyl}-1,2,4-oxadiazol-5-yl)-1-methyl-1H-pyridin-2-one], for which the values for the IC50 in assay [1] and in assay [2] were 0.35 µM and 0.0056 µM, respectively.

For `Nc1ncc(-c2ccc(C3(c4noc(-c5cccnc5N)n4)CCC3)cc2)cn1` [Example 4, 5-(4-{1-[5-(2-Amino-pyridin-3-yl)-1,2,4-oxadiazol-3-yl]-cyclobutyl}-phenyl)-pyrimidin-2-ylamine], the concentration for half-maximal inhibition (IC50) in assay [1] came out at 0.72 µM; in assay [2], 0.0046 µM.

For the compound `Cc1cc(-c2nc(C3(c4ccc(-c5cnc(N)nc5)cc4)CCC3)no2)[nH]n1` [Example 5, 5-(4-{1-[5-(5-Methyl-2H-pyrazol-3-yl)-1,2,4-oxadiazol-3-yl]-cyclobutyl}-phenyl)-pyrimdin-2-ylamine], the 50% inhibitory concentration (IC50) in assay [1] is more than 5 µM; in assay [2], 0.0024 µM.

As to `Cc1n[nH]cc1-c1nc(C2(c3ccc(-c4cnc(N)nc4)cc3)CCC2)no1` [Example 6, 5-(4-{1-[5-(3-Methyl-1H-pyrazol-4-yl)-1,2,4-oxadiazol-3-yl]-cyclobutyl}-phenyl)-pyrimidin-2-ylamine], the IC50 in assay [1] turned out to be 0.15 µM; in assay [2] it was 0.0011 µM.

Consider `Cn1ncc(-c2nc(C3(c4ccc(-c5cnc(N)nc5)cc4)CCC3)no2)c1N` [Example 7, 5-(4-{1-[5-(5-Amino-1-methyl-1H-pyrazol-4-yl)-1,2,4-oxadiazol-3-yl]-cyclobutyl}-phenyl)-pyrimidin-2-ylamine], for which the half-maximal inhibitory concentration (IC50) in assay [1] came out at 0.05 µM; in assay [2] it was 0.0024 µM.

Take `Nc1ncc(-c2ccc(C3(c4noc(-c5cccnn5)n4)CCC3)cc2)cn1` [Example 8, 5-{4-[1-(5-Pyridazin-3-yl-1,2,4-oxadiazol-3-yl)-cyclobutyl]-phenyl}-pyrimidin-2-ylamine]: the results for the IC50 in assay [1] and in assay [2] were 0.4 µM and 0.0085 µM, respectively.

As to `Nc1ncc(-c2ccc(C3(c4noc(-c5c[nH]c(=O)[nH]5)n4)CCC3)cc2)cn1` [Example 9, 4-(3-{1-[4-(2-Amino-pyrimidin-5-yl)-phenyl]-cyclobutyl}-1,2,4-oxadiazol-5-yl)-1,3-dihydro-imidazol-2-one], the figures for the IC50 in assay [1] and in assay [2] were 2 µM and 0.007 µM, respectively.

As for `Cc1ncc(-c2nc(C3(c4ccc(-c5cnc(N)nc5)cc4)CCC3)no2)[nH]1` [Example 10, 5-(4-{1-[5-(2-Methyl-3H-imidazol-4-yl)-1,2,4-oxadiazol-3-yl]-cyclobutyl}-phenyl)-pyrimidin-2-ylamine], the concentration for half-maximal inhibition (IC50) came out at 0.29 µM in assay [1] and 0.0021 µM in assay [2].

Consider `Nc1ncc(-c2ccc(C3(c4noc(C(=O)N5CCCC5)n4)CCC3)cc2)cn1` [Example 11, (3-{1-[4-(2-Amino-pyrimidin-5-yl)-phenyl]-cyclobutyl}-1,2,4-oxadiazol-5-yl)-pyrrolidin-1-yl-methanone], for which the concentration for half-maximal inhibition (IC50) came out at 1.3 µM in assay [1] and 0.12 µM in assay [2].

With `Nc1ncc(-c2ccc(C3(c4noc(N5CCCC5)n4)CCC3)cc2)cn1` [Example 12, 5-{4-[1-(5-Pyrrolidin-1-yl-1,2,4-oxadiazol-3-yl)-cyclobutyl]-phenyl}-pyrimidin-2-ylamine], the 50% inhibitory concentration (IC50) was 0.47 µM in assay [1] and 0.0083 µM in assay [2].

Consider `CCNC(=O)c1nc(C2(c3ccc(-c4cnc(N)nc4)cc3)CCC2)no1` [Example 13, 3-{1-[4-(2-Amino-pyrimidin-5-yl)-phenyl]-cyclobutyl}-1,2,4-oxadiazole-5-carboxylic acid ethylamide], for which the values for the IC50 in assay [1] and in assay [2] were more than 5 µM and 0.17 µM, respectively.

Turning to `CN(C)C(=O)c1nc(C2(c3ccc(-c4cnc(N)nc4)cc3)CCC2)no1` [Example 14, 3-{1-[4-(2-Amino-pyrimidin-5-yl)-phenyl]-cyclobutyl}-1,2,4-oxadiazole-5-carboxylic acid dimethylamide], the IC50 was more than 5 µM in assay [1] and 0.057 µM in assay [2].

Take `Nc1ncc(-c2ccc(C3(c4noc(-c5c[nH]c(=O)cn5)n4)CCC3)cc2)cn1` [Example 16, 5-(3-{1-[4-(2-Amino-pyrimidin-5-yl)-phenyl]-cyclobutyl}-1,2,4-oxadiazol-5-yl)-1H-pyrazin-2-one]: the IC50 was more than 5 µM in assay [1] and 0.0033 µM in assay [2].

On to `NC(=O)c1ccc(-c2nc(C3(c4ccc(-c5cnc(N)nc5)cc4)CCC3)no2)cn1` [Example 17, 5-(3-{1-[4-(2-Amino-pyrimidin-5-yl)-phenyl]-cyclobutyl}-1,2,4-oxadiazol-5-yl)-pyridine-2-carboxylic acid amide], for which the IC50 in assay [1] amounted to 0.18 µM; in assay [2], 0.0021 µM.

Take `Nc1ncc(-c2ccc(C3(c4noc(-c5cnc(N)nc5)n4)CCC3)cc2)cn1` [Example 18, 5-(4-{1-[5-(2-Amino-pyrimidine-5-yl)-1,2,4-oxadiazole-3-yl]-cyclobutyl}-phenyl)-pyrimidin-2-ylamine]: the IC50 was determined as 0.3 µM in assay [1] and 0.0029 µM in assay [2].

On to `Nc1ncc(-c2ccc(C3(c4noc(-c5nccnc5N)n4)CCC3)cc2)cn1` [Example 19, 5-(4-{1-[5-(3-Amino-pyrazin-2-yl)-1,2,4-oxadiazol-3-yl]-cyclobutyl}-phenyl)-pyrimidin-2-ylamine], for which the IC50 turned out to be 1.4 µM in assay [1] and 0.011 µM in assay [2].

Turning to `Nc1ccc(-c2nc(C3(c4ccc(-c5cnc(N)nc5)cc4)CCC3)no2)cn1` [Example 20, 5-(4-{1-[5-(6-Amino-pyridin-3-yl)-1,2,4-oxadiazol-3-yl]-cyclobutyl}-phenyl)-pyrimidin-2-ylamine], the IC50 in assay [1] worked out at 0.063 µM; in assay [2], 0.0019 µM.

For `Cn1ccc(-c2nc(C3(c4ccc(-c5cnc(N)nc5)cc4)CCC3)no2)cc1=O` [Example 21, 4-(3-{1-[4-(2-Amino-pyrimidin-5-yl)-phenyl]-cyclobutyl}-1,2,4-oxadiazol-5-yl)-1-methyl-1H-pyridin-2-one], the figures for the concentration for half-maximal inhibition (IC50) in assay [1] and in assay [2] were 0.16 µM and 0.0031 µM, respectively.

Take `Cc1cnc(-c2nc(C3(c4ccc(-c5cnc(N)nc5)cc4)CCC3)no2)cn1` [Example 22, 5-(4-{1-[5-(5-Methyl-pyrazin-2-yl)-1,2,4-oxadiazol-3-yl]-cyclobutyl}-phenyl)-pyrimidin-2-ylamine]: the half-maximal inhibitory concentration (IC50) in assay [1] was determined as 0.14 µM; in assay [2] it was 0.0026 µM.

`Cn1cnc(-c2nc(C3(c4ccc(-c5cnc(N)nc5)cc4)CCC3)no2)c1` [Example 23]: the IC50 in assay [1] was 0.073 µM; in assay [2], 0.0042 µM.

In the case of `CCNc1nc(C2(c3ccc(-c4cnc(N)nc4)cc3)CCC2)no1` [Example 24, 5-{4-[1-(5-Ethylamino-1,2,4-oxadiazol-3-yl)-cyclobutyl]-phenyl}-pyrimidin-2-ylamine], the values for the IC50 in assay [1] and in assay [2] were 0.46 µM and 0.011 µM, respectively.
